Measurements: US20150164899A1, “INHIBITION OF ADAPTOR ASSOCIATED KINASE 1 FOR THE TREATMENT OF PAIN” (priority 2012, published 2015)
pIC50: −log10 of the molar value. Read-outs that look alike come from different tables or passages of the source.

Tests used:
[1] = target: T1, GST-Xa-hAAK1 (Homo sapiens, UniProt Q2M2I8); test: Caliper assay; format: biochemical; details: aryl ethers
T1 construct: made in house
Protocol: The assays were performed in U-bottom 384-well plates. The final assay volume was 30 μl prepared from 15 μl additions of enzyme and substrates (fluoresceinated peptide (5-FAM)-Aha-[…]-NH2 and ATP) and test compounds in assay buffer (10 mM Tris-HCL pH 7.4, 10 mM MgCl2, 0.01% Tween-20 and 1.0 mM DTT). The reactions were initiated by the combination of bacterially expressed, GST-Xa-hAAK1 with substrates and test compounds. The reactions were incubated at room temperature for 3 hours and terminated by adding 60 μl of 35 mM EDTA buffer to each sample. The reactions were analyzed on the Caliper LabChip 3000 (Caliper, Hopkinton, Mass.) by electrophoretic separation of the fluorescent substrate and phosphorylated product. […] The final concentration of reagents in the assays are ATP, 22 μM; (5-FAM)-Aha-[…]-NH2, 1.5 μM; GST-Xa-hAAK1, 3.5 nM; and DMSO, 1.6%. Dose response curves were generated to determine the concentration required inhibiting 50% of kinase activity (IC50). Compounds were dissolved at 10 mM in dimethylsulfoxide (DMSO) and evaluated at eleven concentrations. IC50 values were derived by non-linear regression analysis.

[2] = target: T2, AAK1 (full length human) in transfected HEK293F cells (Homo sapiens, UniProt Q2M2I8); test: HEK281 cell-based assay (phospho-mu2 Western blot); details: read-out: CBA IC50
T2 construct: expressed in transfected cells; host or cells: HEK293F
T2 sequence (Q2M2I8 1-863 isoform Q2M2I8-2): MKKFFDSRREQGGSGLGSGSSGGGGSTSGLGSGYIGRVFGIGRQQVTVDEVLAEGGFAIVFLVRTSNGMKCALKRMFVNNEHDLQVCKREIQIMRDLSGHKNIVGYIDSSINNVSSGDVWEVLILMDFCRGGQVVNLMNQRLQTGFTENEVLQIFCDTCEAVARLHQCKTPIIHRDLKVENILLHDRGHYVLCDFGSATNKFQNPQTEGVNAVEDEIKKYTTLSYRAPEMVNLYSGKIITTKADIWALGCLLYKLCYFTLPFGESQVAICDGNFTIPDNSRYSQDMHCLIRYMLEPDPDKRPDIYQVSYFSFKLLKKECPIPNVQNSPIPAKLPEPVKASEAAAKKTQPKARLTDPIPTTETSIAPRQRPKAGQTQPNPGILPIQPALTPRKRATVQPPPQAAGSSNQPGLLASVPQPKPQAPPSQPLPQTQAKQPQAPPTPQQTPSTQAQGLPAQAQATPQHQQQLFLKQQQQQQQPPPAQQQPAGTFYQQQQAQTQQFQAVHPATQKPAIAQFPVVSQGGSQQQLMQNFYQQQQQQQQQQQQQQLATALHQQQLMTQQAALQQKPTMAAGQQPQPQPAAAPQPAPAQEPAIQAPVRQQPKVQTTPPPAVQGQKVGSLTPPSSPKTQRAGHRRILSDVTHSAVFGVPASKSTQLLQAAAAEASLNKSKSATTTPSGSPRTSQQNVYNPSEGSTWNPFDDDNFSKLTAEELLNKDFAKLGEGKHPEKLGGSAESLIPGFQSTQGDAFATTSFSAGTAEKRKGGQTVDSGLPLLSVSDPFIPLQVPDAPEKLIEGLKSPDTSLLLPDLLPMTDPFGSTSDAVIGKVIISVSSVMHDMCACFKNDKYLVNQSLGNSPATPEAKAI

[3] = test system: formalin-induced paw flinching; test: formalin paw test; format: in vivo; details: mice
Protocol: See example 5.4.1, above. The same test was used to confirm that the administration of an AAK1 inhibitor can also affect pain response.
Mice were tested for nociception with Automatic Nociception Analyzers (purchased from the Ozaki lab at University of California, San Diego). A metal band was placed around the left hind paw of each mouse with superglue 30 minutes prior to testing. After the 30-minute acclimation period, 20 μl of 5% formalin was subcutaneously injected in the dorsal surface of the left hind paw. Mice were individually housed in cylindrical chambers for 45 minutes. Fresh 5% formalin solution was prepared by diluting formaldehyde (Formalde-fresh 20%, Fisher Scientific, Fair Lawn, N.J.) with distilled water. Investigatory compounds were administered 30 minutes prior to formalin injection.
A computer software recorded flinches per minute, total flinches for Phase I (acute phase=first 8 minutes), and total flinches for Phase II (tonic phase between 20-40 minutes) through an electromagnetic field. See Yaksh T L, Ozaki G, McCumber D, Rathbun M, Svensson C, Malkmus S, Yaksh M C. An automated flinch detecting system for use in the formalin nociceptive bioassay. J Appl Physiol., 2001; 90:2386-402.
Various compounds of the invention were tested at different doses. Gabapentin and pregabalin were used as positive controls. Results are shown below in Table 2, wherein “*” means an effect equal to or greater than 50 percent of that of gabapentin at 200 mpk, “**” means an effect equal to or greater than 100 percent of that of gabapentin at 200 mpk, “sc” means subcutaneous administration, “ip” means in intraperitoneal administration, and “po” means oral administration.

[4] = HEK281 cell-based assay, pyrazolo[1,5-a]pyrimidine-based inhibitors

T1 sequence (Q2M2I8 whole entry): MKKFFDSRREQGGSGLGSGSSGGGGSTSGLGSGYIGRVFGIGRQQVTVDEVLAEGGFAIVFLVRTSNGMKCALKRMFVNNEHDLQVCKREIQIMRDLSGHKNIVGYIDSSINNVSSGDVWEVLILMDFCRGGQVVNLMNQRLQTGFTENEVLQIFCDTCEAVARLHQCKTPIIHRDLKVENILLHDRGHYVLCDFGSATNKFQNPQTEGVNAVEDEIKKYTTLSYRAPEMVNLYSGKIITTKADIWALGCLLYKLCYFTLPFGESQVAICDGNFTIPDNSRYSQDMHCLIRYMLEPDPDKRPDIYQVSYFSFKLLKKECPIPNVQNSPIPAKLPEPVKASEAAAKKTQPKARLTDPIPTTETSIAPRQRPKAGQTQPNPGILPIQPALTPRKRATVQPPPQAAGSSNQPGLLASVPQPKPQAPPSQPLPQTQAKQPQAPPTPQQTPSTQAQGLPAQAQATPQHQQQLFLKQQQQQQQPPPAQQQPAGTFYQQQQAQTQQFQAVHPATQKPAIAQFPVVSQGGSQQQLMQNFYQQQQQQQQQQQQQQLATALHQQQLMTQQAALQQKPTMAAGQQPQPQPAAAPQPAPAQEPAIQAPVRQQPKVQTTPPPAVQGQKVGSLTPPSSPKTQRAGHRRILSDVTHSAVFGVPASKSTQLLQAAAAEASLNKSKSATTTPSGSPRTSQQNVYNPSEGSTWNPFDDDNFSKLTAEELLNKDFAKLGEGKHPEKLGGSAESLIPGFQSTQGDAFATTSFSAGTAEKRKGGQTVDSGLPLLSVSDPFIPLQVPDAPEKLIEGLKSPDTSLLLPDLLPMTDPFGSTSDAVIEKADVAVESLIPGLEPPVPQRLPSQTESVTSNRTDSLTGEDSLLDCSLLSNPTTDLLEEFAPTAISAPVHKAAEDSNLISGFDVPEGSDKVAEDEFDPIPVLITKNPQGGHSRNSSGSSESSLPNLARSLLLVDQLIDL

Q: What does the source list for CCC1Oc2cc(OC[C@@H](N)CC(C)C)ccc2-c2ccncc21 (some centres unmarked)?
A: pIC50 ([1]; numeric values): 7.92; pIC50 ([2]; aryl ethers, numeric values): 7.25

Q: How did the Effect ([3]; 10 mpk sc) turn out when COc1ccccc1-c1cnn2ccc(NC[C@@H]3CCCN3C(=O)OC(C)(C)C)nc12 [(S)-tert-butyl 2-(((3-(2-methoxyphenyl)pyrazolo[1,5-a]pyrimidin-5-yl)amino)methyl)pyrrolidine-1-carboxylate] was run?
A: The Effect was “* (an effect equal to or greater than 50% of that of gabapentin at 200 mpk)”.

Q: And the Effect ([3]; 60 mpk sc)?
A: Its Effect is “* (an effect equal to or greater than 50% of that of gabapentin at 200 mpk)”.

Q: What about the pIC50 [2, 4] of the same molecule?
A: Its pIC50 is ≥ 8.00.

Q: How did the pIC50 ([1]; class symbols) turn out when CC(C)C[C@H](N)COc1ccc2c(c1)OC(C1CC1)c1cnccc1-2 (some centres unmarked) [drawing 36] was run?
A: Its pIC50 is 6.00 to 7.00.

Q: CC(C)C[C@H](N)COc1ccc2c(c1)OCc1cnc(N)cc1-2 was tested. Which pIC50 ([1]; class symbols) did it give?
A: Its pIC50 is 8.00 to 9.00.

Q: And the pIC50 ([2]; aryl ethers, class symbols)?
A: Its pIC50 is 8.00 to 9.00.

Q: Which Effect ([3]; 60 mpk sc) does the source give for CC(C)(C)OC(=O)N1CCC[C@H]1CNc1ccc2ncc(-c3ccc(CN)cc3)n2n1 [(S)-tert-butyl 2-(((3-(4-(aminomethyl)phenyl)imidazo[1,2-b]pyridazin-6-yl)amino)methyl)pyrrolidine-1-carboxylate] here?
A: Its Effect is “** (an effect equal to or greater than 100% of that of gabapentin at 200 mpk)”.

Q: Which results are given for CCc1cc2c(cc1OC[C@@H](N)CC(C)C)OC(CC)c1cnccc1-2 (some centres unmarked)?
A: pIC50 ([1]; class symbols): 7.00 to 8.00; pIC50 ([2]; aryl ethers, numeric values): 7.74

Q: With CC(C)C[C@H](N)COc1cc2c(cc1Br)-c1ccncc1CO2 as the molecule, how does the pIC50 ([1]; numeric values) read?
A: The pIC50 was 9.07.

Q: What about the pIC50 ([2]; aryl ethers, numeric values) of the same molecule?
A: Its pIC50 is 8.60.

Q: Which Effect ([3]; 30 mpk ip) does the source give for CCCCNc1ccc2ncc(-c3ccc(C(=O)NCCN)cc3)n2n1 [N-(2-aminoethyl)-4-(6-(butylamino)imidazo[1,2-b]pyridazin-3-yl)benzamide] here?
A: Its Effect is “** (an effect equal to or greater than 100% of that of gabapentin at 200 mpk)”.

Q: With CC(C)C[C@H](CN)CC(=O)O [Pregabalin, reference compound] as the molecule, how does the Effect ([3]; 50 mpk sc) read?
A: Its Effect is “* (an effect equal to or greater than 50% of that of gabapentin at 200 mpk)”.

Q: Which Effect ([3]; 10 mpk sc, given as a number, relative to gabapentin at 200 mpk) does the source give for CC(C)C[C@@H](N)COc1ccc2c(c1)OCc1cnccc1-2 [(R)-1-(5H-chromeno[3,4-c]pyridin-8-yloxy)-4-methylpentan-2-amine] here?
A: The Effect was 45%.

Q: What about the Effect ([3]; 30 mpk sc) of the same molecule?
A: Its Effect is “* (an effect equal to or greater than 50% of that of gabapentin at 200 mpk)”.

Q: COc1ncccc1-c1cnn2ccc(N3CCN(C(=O)OC(C)C)CC3)nc12 [isopropyl 4-(3-(2-methoxypyridin-3-yl)pyrazolo[1,5-a]pyrimidin-5-yl)piperazine-1-carboxylate] was tested. Which Effect ([3]; 10 mpk po) did it give?
A: Its Effect is “* (an effect equal to or greater than 50% of that of gabapentin at 200 mpk)”.

Q: And the Effect ([3]; 30 mpk po)?
A: The Effect was “** (an effect equal to or greater than 100% of that of gabapentin at 200 mpk)”.

Q: Which Effect ([3]; 60 mpk ip) does the source give for CCCCNc1ccc2ncc(-c3ccc(-c4nnn[nH]4)cc3)n2n1 [3-(4-(1H-tetrazol-5-yl)phenyl)-N-butylimidazo[1,2-b]pyridazin-6-amine] here?
A: The Effect was “** (an effect equal to or greater than 100% of that of gabapentin at 200 mpk)”.

Q: How did the pIC50 ([1]; numeric values) turn out when CC(C)C[C@H](N)COc1ccc2c(c1)OC(C)c1cnccc1-2 (some centres unmarked) [drawing 30] was run?
A: Its pIC50 is 8.31.

Q: For CC(C)(C)OCCCNc1ccc2ncc(-c3ccc(CN)cc3)n2n1 [3-(4-(aminomethyl)phenyl)-N-(3-(tert-butoxy)propyl)imidazo[1,2-b]pyridazin-6-amine], which Effect ([3]; 60 mpk sc) is on record?
A: The Effect was “** (an effect equal to or greater than 100% of that of gabapentin at 200 mpk)”.

Q: How did the pIC50 ([1]; class symbols) turn out when CC(C)C[C@@H](N)COc1ccc2c(c1)OC(C)c1cnccc1-2 (some centres unmarked) was run?
A: Its pIC50 is 7.00 to 8.00.

Q: And the pIC50 ([2]; aryl ethers, numeric values)?
A: The pIC50 was < 6.52.

Q: NCC1(CC(=O)O)CCCCC1 [Gabapentin, reference compound] was tested. Which Effect ([3]; 50 mpk sc) did it give?
A: The Effect was “* (an effect equal to or greater than 50% of that of gabapentin at 200 mpk)”.

Q: And the Effect ([3]; 200 mpk sc)?
A: The Effect was “** (an effect equal to or greater than 100% of that of gabapentin at 200 mpk)”.

Q: CC(C)C[C@@H](N)COc1ccc2c(c1)OCc1cnccc1-2 [drawing 25] was tested. Which pIC50 ([1]; class symbols) did it give?
A: The pIC50 was 7.00 to 8.00.

Q: How did the Effect ([3]; 30 mpk sc) turn out when CC(C)(C)OC(=O)N1CCC[C@H]1CNc1ccc2ncc(Br)n2n1 [(S)-tert-butyl 2-(((3-bromoimidazo[1,2-b]pyridazin-6-yl)amino)methyl)pyrrolidine-1-carboxylate] was run?
A: Its Effect is “** (an effect equal to or greater than 100% of that of gabapentin at 200 mpk)”.

Q: And the Effect ([3]; 60 mpk sc)?
A: Its Effect is “** (an effect equal to or greater than 100% of that of gabapentin at 200 mpk)”.

Q: How did the pIC50 ([1]; class symbols) turn out when CC(C)C[C@H](N)COc1ccc2c(c1)OC(C)c1cnccc1-2 (some centres unmarked) [drawing 31] was run?
A: The pIC50 was 7.00 to 8.00.

Q: And the pIC50 ([2]; aryl ethers, numeric values)?
A: The pIC50 was 7.60.

Q: For CC(C)(C)OC(=O)N1CCC[C@H]1CNc1ccn2ncc(-c3ccncc3)c2n1 [(S)-tert-butyl 2-(((3-(pyridin-4-yl)pyrazolo[1,5-a]pyrimidin-5-yl)amino)methyl)pyrrolidine-1-carboxylate], which Effect ([3]; 30 mpk sc) is on record?
A: The Effect was “** (an effect equal to or greater than 100% of that of gabapentin at 200 mpk)”.

Q: What about the pIC50 [2, 4] of the same molecule?
A: The pIC50 was ≥ 8.00.

Q: With NCc1ccc(-c2cnc3ccc(NCCCc4ccccc4)nn23)cc1 [3-(4-(aminomethyl)phenyl)-N-(3-phenylpropyl)imidazo[1,2-b]pyridazin-6-amine] as the molecule, how does the Effect ([3]; 30 mpk ip) read?
A: Its Effect is “** (an effect equal to or greater than 100% of that of gabapentin at 200 mpk)”.

Q: How did the Effect ([3]; 30 mpk sc) turn out when COc1ccccc1-c1cnn2ccc(N3CCN(C(=O)OC(C)C)CC3)nc12 [isopropyl 4-(3-(2-methoxyphenyl)pyrazolo[1,5-a]pyrimidin-5-yl)piperazine-1-carboxylate] was run?
A: Its Effect is “** (an effect equal to or greater than 100% of that of gabapentin at 200 mpk)”.

Q: How did the pIC50 ([1]; numeric values) turn out when N[C@@H](COc1ccc2c(c1)OCc1cnccc1-2)Cc1ccccc1 was run?
A: The pIC50 was 6.53.

Q: CC(C)C[C@H](N)COc1ccc2c(c1)OC(C1CC1)c1cnccc1-2 (some centres unmarked) [drawing 37] was tested. Which pIC50 ([1]; class symbols) did it give?
A: The pIC50 was 8.00 to 9.00.

Q: What about the pIC50 ([2]; aryl ethers, numeric values) of the same molecule?
A: Its pIC50 is 7.74.
